These results are taken from PubChem BioAssay AID488890 (Southern Research Specialized Biocontainment Screening …, 2010).

For orientation: IC50 means the concentration that gives 50% inhibition.

Records with an inconclusive call do not appear. Calls of active or inactive are those of the source. The rule behind the calls is not given here.

The subject of this test is Mycobacterium tuberculosis non-replicating, growth inhibition. The test is described as follows: growth inhibition of non-replicating M. tuberculosis (AID 488890).
For `O=C(N/N=C\c1ccc([N+](=O)[O-])s1)c1cncc(Br)c1`, the half-inhibitory concentration (IC50) was 2.02 µM.
In the case of `O=C(Nc1nc2ccccc2[nH]1)c1cccc([N+](=O)[O-])c1`, the IC50 is 33.2 µM (inactive).
`C=CCNc1nc(C(=O)OCC(=O)c2cccc(Br)c2)cs1`: the IC50 was 20.8 µM (inactive).
In the case of `Clc1ccc(OCCCNCc2ccccc2)c2ccccc12`, the IC50 was 5.99 µM.
`c1ccc(-c2nc3c(ccc4ccccc43)[nH]2)nc1`: the IC50 was 17.8 µM (inactive).
On to `Cc1ccc(N=N/C(=C\O)C(=O)c2ccncc2)cc1`, for which the IC50 was 10.1 µM (inactive).
As to `COC(=O)c1cc(/C=C/c2ccccc2)on1`, the half-inhibitory concentration (IC50) was 2.18 µM.
For `O=C(Nc1sc2c(c1C(=O)O)CCCC2)c1ccc(F)cc1`, the IC50 was 24.3 µM (inactive).
In the case of `Cc1ccc(C)c(NC(=O)COC(=O)c2cc3ccccc3oc2=O)c1`, the IC50 was 17 µM (inactive).
As to `CC(C)c1nnc(NC(=O)c2c(O)c3cccc4c3n(c2=O)CCC4)s1`, the IC50 was 1.24 µM.
`O=C(Nc1ncc2c(n1)-c1ccccc1OC2)c1ccc(F)cc1`: the IC50 is 4.39 µM.
Under `O=C1NCC(O)=C1C=Nc1ccccc1O` stands 6.37 µM.
For `O=C(Nc1nccs1)c1cc2cc(Cl)ccc2oc1=O`, the IC50 was 3.23 µM.
Consider `COc1cc(C2C3=C(CC(C)(C)CC3=O)OC(N)=C2[N+](=O)[O-])ccc1O` (stereo unspecified), for which the IC50 was 50 µM (inactive).
As for `O=C(Oc1cccnc1)c1ccc(Cl)c(Cl)c1`, the IC50 is 3.86 µM.
Consider `CC(C)Cc1cc(C(=O)Nc2ccc(F)cc2F)no1`, for which the IC50 was 2.34 µM.
Turning to `O=C(CCN1C(=O)/C(=C/c2ccccc2Cl)SC1=S)N1CCCC1`, the IC50 is 7.03 µM.
Consider `CCOC(=O)C1CSC(CC(=O)Nc2ccc(Cl)c(Cl)c2)C(=O)N1` (stereo unspecified), for which the IC50 was 10.7 µM (inactive).
As to `CCCCCCCNC(=O)C1(CC2CC(c3cccc(Br)c3)=NO2)CCNCC1` (stereo unspecified), the IC50 was 13.7 µM (inactive).
Next, `CN(C)CCC(=O)N1c2ccccc2Sc2ccc(Cl)cc21`: 21 µM (inactive); `CC(C)(C)Nc1nc(NC(C)(C)C)nc(-n2ccnc2)n1`: 23 µM (inactive).
Regarding `CCOC(=O)COc1cc(N)c(Cl)cc1Cl`, the IC50 was 5.21 µM.
Consider `COc1cc(N=c2ssnc2Cl)cc(OC)c1OC`, for which the IC50 was 17.9 µM (inactive).
For `Cc1ccc(-c2nn(-c3ccccc3)cc2/C=N/NC(=O)c2ccncc2)o1`, the IC50 was 6.11 µM.
Regarding `O=C1N=c2ccccc2=C1c1c(O)n(-c2cccc(F)c2)[nH]c1=O`, the IC50 is 6.91 µM.
Next, `CCc1nonc1NC(=O)COc1ccc(Cl)c(C)c1`: 9.9 µM; `Cn1nnc(NC(=O)COc2ccc(C3CCCCC3)cc2)n1`: 1.68 µM.
As to `Nc1c(Cl)cc(Cl)cc1C(=O)OCC(=O)N1CCCC1`, the IC50 was 2.46 µM.
On to `CCCn1c(=O)c(C(=O)N/N=C/c2ccccc2F)c(O)c2ccccc21`, for which the IC50 was 13.3 µM (inactive).
Under `CC(C)(C)NC(=O)C(=O)NNC(=O)COc1ccc(Br)cc1` stands 12 µM (inactive).
Consider `O=C(CCSc1nnc(-c2ccccc2)o1)N1CCOCC1`, for which the IC50 was 3.95 µM.
For `Cc1onc(-c2ccccc2)c1C(=O)N/N=C/c1ccc([N+](=O)[O-])s1`, the IC50 was 8.09 µM.
With `Cc1ccc(C(=O)NCCOc2cccc(C)c2)cc1`, the IC50 was 3.92 µM.
On to `Cc1ccccc1-n1c(C)cc(/C=N/NC(=O)c2ccncc2)c1C`, for which the IC50 was 0.65 µM.
Under `CC(=O)Oc1c(-c2ccco2)oc2ccccc2c1=O` stands 10.6 µM (inactive); under `Cn1c(/C=C/c2ccc([N+](=O)[O-])o2)nc2ccccc2c1=O`, less than 0.1 µM; under `CN(C)C=C1C(=O)N(C2CCCCC2)C(=O)N(C2CCCCC2)C1=O`, 1.57 µM.
Next, `O=S(=O)(Nc1nccs1)c1ccc(NCc2cc(Br)cc(Br)c2O)cc1`: 10.7 µM (inactive); `CCCCSc1nnc(-c2cc(Br)ccc2N)c(=O)[nH]1`: 12.6 µM (inactive).
Under `Cn1nnnc1N=N/C(=N/Nc1ccccc1)c1ccccc1` stands 6.47 µM; under `COc1ccc(C(=O)N/N=C/c2cccc3cccnc23)cc1`, 6.88 µM; under `O=C(NCc1ccc2c(c1)OCO2)c1ccc(Cl)s1`, 1.73 µM.
Consider `Cc1ccc(NC(=O)CCSc2nnc(Cc3ccccc3)o2)cc1`, for which the IC50 is 2.05 µM.
For the molecule `Cc1ccccc1C(=O)NNc1ccc([N+](=O)[O-])cc1`, the IC50 is 20.4 µM (inactive).
Take `S=C1SCN(Cc2cccnc2)CN1Cc1ccccc1`: the IC50 is 14.9 µM (inactive).
As to `O=C(COc1ccc(-c2ccccc2)cc1)Nc1cccnc1`, the IC50 is 3.28 µM.
Take `Oc1cc(NCc2cccnc2)ccc1-c1nc2ccccc2o1`: the IC50 was 47.1 µM (inactive).
In the case of `COC(=O)C(C)Oc1ccc2cc(-c3ccccc3)c(=O)oc2c1` (stereo unspecified), the IC50 was 4.96 µM.
For `C/C(=N\Nc1ccc(Cl)cc1)c1c(O)cc(C)oc1=O`, the IC50 is 3.61 µM.
As for `COc1cc(CNCCNC(=O)c2nonc2N)ccc1OCc1ccc(Cl)cc1`, the IC50 is 12.2 µM (inactive).
Turning to `O=C(Oc1ccccc1)c1ccc(NC(=O)c2ccco2)cc1`, the IC50 is 7.33 µM.
`Cc1cc(-c2c(C)[nH]n(-c3ccccc3)c2=O)n[nH]1`: the IC50 was 29.2 µM (inactive).
As to `NC(N)=N/N=C/c1cccc([N+](=O)[O-])c1O`, the IC50 is 2.01 µM.
Turning to `C=C[C@]1(C)C=C2CCC3[C@](C)(CCC[C@@]3(C)C(=O)O)C2CC1` (stereo partly specified), the IC50 was 6.33 µM.
`CCOC(=O)c1sc(NC(=O)CCN2CCOCC2)c(C(=O)OCC)c1C`: the IC50 is 1.73 µM.
`CCOC(=O)C1CCCc2c1[nH]c1c(C(N)=O)cccc21` (stereo unspecified): the IC50 was 9.99 µM.
Regarding `Cc1cccc(-c2nnc3sc(-c4ccccc4C)nn23)c1`, the IC50 was 22.4 µM (inactive).
For `Cc1ccc(C)c(-c2csc(NC(=O)c3cnccn3)n2)c1`, the IC50 was 3.13 µM.
Consider `O=Cc1ccc(OC2OCCOC2Oc2ccc(C=O)cc2)cc1` (stereo unspecified), for which the IC50 is 14.2 µM (inactive).
For the molecule `COc1ccc(Cc2nnc(-c3ccccc3)o2)cc1`, the IC50 is 0.19 µM.
For the molecule `Oc1ccc2cc(Br)ccc2c1CN1CCCC1`, the IC50 is 7.29 µM.
Consider `COc1cc(/C=C2/C(=O)NN(c3cccc(C)c3)C2=O)ccc1OC(=O)c1ccco1`, for which the concentration for half-maximal inhibition (IC50) is 5.53 µM.
As to `C/C(=N\NC(=O)c1ccc([N+](=O)[O-])c(C)c1)c1ccccc1Cl`, the IC50 was 12.2 µM (inactive).
Take `COc1cccc(NC(=O)c2cc3ccccc3oc2=O)c1`: the IC50 is 15.2 µM (inactive).
`C/C(=N\NC(=O)c1cccs1)c1ccc2c(c1)OCO2`: the IC50 is 8.78 µM.
Regarding `O=C(COC(=O)CCc1c[nH]c2ccccc12)Nc1cc([N+](=O)[O-])ccc1Cl`, the half-maximal inhibitory concentration (IC50) is 3.17 µM.
As for `Cc1cc(OCc2cc(C(=O)N(C)CCc3cnn(C)c3)no2)cc(C)c1Cl`, the IC50 is 30.6 µM (inactive).
Under `CC(C)c1ccc(C2=C(O)c3ccccc3C(=O)C2=O)cc1` stands 3.7 µM; under `CCOC(=O)C1CCCN(Cc2ccc(OCc3ccccc3)cc2)C1` (stereo unspecified), 21.8 µM (inactive); under `CN(C)CCNc1c2c(c(C#N)c3nc4ccccc4n13)CCCC2`, 14.5 µM (inactive).
In the case of `O=c1c2cc(Br)ccc2nc(-c2ccc([N+](=O)[O-])cc2)n1O`, the half-maximal inhibitory concentration (IC50) is 0.99 µM.
In the case of `CCC(C)n1c(=S)[nH]c2ccccc2c1=O` (stereo unspecified), the IC50 is 14.8 µM (inactive).
As to `Cc1ccc(CC(=O)N2CCN(c3ccc([N+](=O)[O-])cc3)CC2)cc1`, the IC50 is 16 µM (inactive).
Consider `O=C(OCC(=O)N1CCCCC1)c1cc2ccccc2cc1O`, for which the IC50 was 5.84 µM.
For `O=C(N/N=C/C=C/c1ccco1)c1ccncc1`, the IC50 was 1.19 µM.
Take `CC(C)(C)c1ccc(C(=O)N2CCCC2)s1`: the IC50 is 1.66 µM.
Consider `O=C(COC(=O)c1ccccn1)Nc1cccc(Cl)c1Cl`, for which the IC50 is 6.11 µM.
In the case of `O=c1c2cc(Cl)ccc2nc(-c2ccc([N+](=O)[O-])cc2)n1O`, the 50% inhibitory concentration (IC50) was 2.2 µM.
Turning to `Cc1cc(C)cc(NC(=O)CCc2ccc(C)o2)c1`, the half-maximal inhibitory concentration (IC50) is 1.42 µM.
Turning to `O=C(Nc1nnc(-c2ccccc2Cl)o1)c1cccnc1`, the IC50 was 23.2 µM (inactive).
Take `Cc1ccc(NC(=O)c2ccc([N+](=O)[O-])o2)cc1S(=O)(=O)N1CCOCC1`: the IC50 is 13.9 µM (inactive).
Take `Cc1nc([N+](=O)[O-])c(Br)n1CC(=O)c1ccc2ccccc2c1`: the IC50 was 7.54 µM.
In the case of `N=C1/C(=C\c2coc3ccccc3c2=O)C(=O)N=C2SC=CN12`, the IC50 is 21.4 µM (inactive).
As for `O=C(Nc1cccc(NC(=O)c2cccs2)c1)c1ccc([N+](=O)[O-])o1`, the IC50 was 5.43 µM.
Next, `Cc1cc(NC(=O)c2cc([N+](=O)[O-])cc([N+](=O)[O-])c2)no1`: 17.3 µM (inactive); `COc1cc(/C=N/Nc2cccc3cccnc23)cc(OC)c1O`: 15.2 µM (inactive); `Clc1ccc(Cl)c(OCCCCNCc2ccccc2)c1`: 15.1 µM (inactive).
Under `N#C/C(N=Nc1ccccc1O)=N\Nc1ccccc1O` stands 2.67 µM; under `CCOC(=O)Cn1c(-c2ccccc2)ccc(C#N)c1=O`, 4.71 µM; under `CC(=O)CCC1CC(c2ccc(Cl)cc2)=NO1` (stereo unspecified), 2.39 µM.
Regarding `CCS(=O)(=O)c1c([N+](=O)[O-])ncn1C`, the IC50 is 19.5 µM (inactive).
On to `CCn1c(NC(=O)c2ccccc2)nc2ccccc21`, for which the IC50 was 4.44 µM.
Turning to `Cc1nonc1C(=O)N/N=C/c1ccc([N+](=O)[O-])o1`, the IC50 was 10.1 µM (inactive).
For `CCCNC(=O)NC(=O)COc1ccc(-c2ccc(C#N)cc2)cc1`, the IC50 was 2.54 µM.
Regarding `CC(C)c1cc(C(=O)N/N=C/C=C/c2ccccc2)n[nH]1`, the IC50 is 27 µM (inactive).
Take `O=C(COC(=O)c1cccc([N+](=O)[O-])c1)NCc1cccs1`: the IC50 is 25.7 µM (inactive).
Take `CC(C)CCCn1c(O)c(/C=C2/C=CC=N2)c(=O)[nH]c1=O`: the IC50 is 0.27 µM.
For `Oc1c(C(c2ccccc2Cl)N2CCCC2)ccc2cccnc12` (stereo unspecified), the 50% inhibitory concentration (IC50) is 4.68 µM.
Under `Cc1cc(Br)ccc1OCC(=O)NNC(=O)C(=O)Nc1ccccc1` stands 1.22 µM; under `COc1ccc(/C=C/c2cc(-c3ccc(C)cc3)o[n+]2C)cc1`, 4.7 µM; under `CCOC(=O)NC(=O)COC(=O)CCCSc1nc2ccccc2s1`, 10 µM (inactive).
